Experiment: xn = mol fraction of the nth substance listed
Conditions: 100 kPa

CCOS(=O)(=O)[O-].CC[n+]1ccn(C)c1 + OCCO
viscosity [mPa·s]
Conditions	x1 = 0.1003	x1 = 0.1982	x1 = 0.2999	x1 = 0.4002	x1 = 0.5005	x1 = 0.5992	x1 = 0.6994	x1 = 0.8001	x1 = 0.8993
293.15 K	–	17.96	–	25.17	32.09	40.31	54.7	70.3	99.9
298.15 K	14.75	15.08	17.32	21.18	26.88	33.49	44.9	56.9	78.4
303.15 K	12.28	12.75	14.69	17.95	22.71	–	–	46.47	62.8
308.15 K	10.4	–	–	15.42	19.35	23.73	31.11	38.47	51.2
313.15 K	8.88	–	10.94	13.31	16.65	20.23	26.27	32.2	42.22
318.15 K	7.67	–	9.49	–	14.46	17.49	22.38	–	–
323.15 K	–	7.16	8.38	10.19	12.56	15.18	19.32	23.28	29.87
328.15 K	5.8	6.26	7.45	9.03	11.07	13.32	16.79	20.18	25.55
333.15 K	–	–	6.62	8.07	–	11.79	14.74	17.49	22.02
338.15 K	4.53	4.97	5.94	7.19	8.77	–	13.02	15.39	19.13
343.15 K	4.03	4.47	5.33	6.46	–	–	11.55	–	16.8

From a compilation of properties of binary mixtures (doi:10.1007/s10953-023-01246-7)
